The text below walks through data of patent US7566712B2, “Biaryl piperazinyl-pyridine analogues” (Neurogen Corporation, priority 2003, dated 2009).

In the first test the target is T1, human capsaicin receptor (Homo sapiens, UniProt Q8NER1).
T1 construct: pBK-CMV expression construct encoding the full length human capsaicin receptor; expressed in transfected cells
T1 sequence (Q8NER1 whole entry): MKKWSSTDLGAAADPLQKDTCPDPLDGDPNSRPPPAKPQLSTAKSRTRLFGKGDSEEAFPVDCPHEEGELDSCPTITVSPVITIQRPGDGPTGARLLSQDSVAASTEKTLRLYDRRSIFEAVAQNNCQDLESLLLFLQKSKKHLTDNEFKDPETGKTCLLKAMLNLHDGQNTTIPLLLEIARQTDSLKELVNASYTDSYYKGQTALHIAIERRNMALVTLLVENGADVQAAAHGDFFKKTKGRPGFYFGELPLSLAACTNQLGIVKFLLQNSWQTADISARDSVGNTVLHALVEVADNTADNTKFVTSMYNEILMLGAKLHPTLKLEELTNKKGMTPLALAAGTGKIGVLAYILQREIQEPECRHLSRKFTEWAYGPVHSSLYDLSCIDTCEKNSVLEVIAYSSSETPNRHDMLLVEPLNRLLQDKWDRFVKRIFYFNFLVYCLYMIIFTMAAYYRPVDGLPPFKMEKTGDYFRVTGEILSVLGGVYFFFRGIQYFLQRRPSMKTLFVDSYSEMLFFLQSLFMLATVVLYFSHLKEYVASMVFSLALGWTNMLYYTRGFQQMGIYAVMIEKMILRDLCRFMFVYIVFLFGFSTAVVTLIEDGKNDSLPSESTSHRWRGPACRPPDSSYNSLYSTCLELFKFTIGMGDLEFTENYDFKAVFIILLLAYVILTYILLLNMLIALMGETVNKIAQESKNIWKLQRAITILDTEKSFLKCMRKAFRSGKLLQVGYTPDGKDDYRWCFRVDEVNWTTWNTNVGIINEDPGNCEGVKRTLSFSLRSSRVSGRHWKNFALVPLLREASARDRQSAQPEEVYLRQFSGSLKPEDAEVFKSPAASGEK
Nature of the test: Calcium mobilization assay, determination of antagonist activity (Example 6). In kind it is cell-based. Conditions: Table II; IC50 determined as described in Example 6. Summed up: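 HEK293 clonal lines stably expressing full-length human capsaicin receptor, loaded with Fluo-3 AM in KRH buffer pH 7.4, 1–2 h at 37 °C. Compounds (1–5 μM final) preincubated 0.5–6 h at room temperature, then capsaicin at its EC50 added. FLIPR/Fluoroskan calcium signal; IC50 as 50% decrease of capsaicin response.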
In general terms: Calcium assays in cells follow changes in intracellular calcium, usually with a dye or a luminescent sensor.
On to `CC(C)c1ccc(-c2cc(N3CCN(c4ncccc4C#N)C[C@H]3C)nc(N3CCOCC3)n2)cc1` [Example 503, 2-{(3R)-4-[6-(4-isopropylphenyl)-2-morpholin-4-ylpyrimidin-4-yl]-3-methylpiperazin-1-yl}nicotinonitrile], for which the IC50 (usually the midpoint of a concentration-inhibition curve) is at most 1000 nM.

For the molecule `C[C@@H]1CN(c2ncccc2C(F)(F)F)CCN1c1cc(-c2ccccc2)nc(N2CCOCC2)n1` [Example 478, 4-(4-{(2R)-2-methyl-4-[3-(trifluoromethyl)pyridin-2-yl]piperazin-1-yl}-6-phenylpyrimidin-2-yl)morpholine], the IC50 was at most 1000 nM.

For the molecule `CN1CCC(N(C)c2nc(-c3ccc(F)c(Cl)c3)cc(N3CCN(c4ncccc4C(F)(F)F)CC3)n2)CC1` [Example 565], the IC50 was at most 1000 nM.

With `CCc1ccc(-c2cc(N3CCN(c4ncccc4Cl)C[C@H]3C)nc(N3CCOCC3)n2)cc1` [Example 511, 4-[4-[(2R)-4-(3-chloropyridin-2-yl)-2-methylpiperazin-1-yl]-6-(4-ethylphenyl)pyrimidin-2-yl]morpholine], the IC50 was at most 1000 nM.

Turning to `Cc1cccnc1N1CCN(c2cc(-c3cccc4ccccc34)nc(N3CCOCC3)n2)[C@H](C)C1` [Example 521, 4-[4-[(2R)-2-methyl-4-(3-methylpyridin-2-yl)piperazin-1-yl]-6-(1-naphthyl)pyrimidin-2-yl]morpholine], the IC50 is at most 1000 nM.

In the case of `Fc1ccc(-c2cc(N3CCN(c4ncccc4C(F)(F)F)CC3)nc(OCC3CC3)n2)cc1Cl` [Example 553, 4-(3-chloro-4-fluorophenyl)-2-(cyclopropylmethoxy)-6-{4-[3-(trifluoromethyl)pyridin-2-yl]piperazin-1-yl}pyrimidine], the IC50 is at most 1000 nM.

`COc1ccc(Cl)cc1-c1nc(N2CCOCC2)nc(N2CCN(c3ccccn3)CC2)n1` [Example 431, 2-(5-chloro-2-methoxyphenyl)-4-morpholin-4-yl-6-(4-pyridin-2-ylpiperazin-1-yl)-1,3,5-triazine]: the IC50 was at most 1000 nM.

On to `C=CCN1CCN(c2nc(-c3cccc(C)c3)nc(N3CCN(c4ncccc4C(F)(F)F)CC3)n2)CC1` [Example 453, 2-(4-allylpiperazin-1-yl)-4-(3-methylphenyl)-6-{4-[3-(trifluoromethyl)pyridin-2-yl]piperazin-1-yl}-1,3,5-triazine], for which the IC50 was at most 1000 nM.

The same test, now with this note: Table II; IC50 determined as described in Example 6 (antagonist activity, calcium mobilization).
For `C[C@@H]1CN(c2ccccc2F)CCN1c1cc(-c2ccc(F)c(Cl)c2)nc(N2CCCC2)n1` [Example 990, 4-(3-chloro-4-fluorophenyl)-6-[(2R)-4-(2-fluorophenyl)-2-methylpiperazin-1-yl]-2-pyrrolidin-1-ylpyrimidine], the IC50 was at most 1000 nM.

For `C[C@@H]1CN(c2nccnc2Cl)CCN1c1cc(-c2ccc(F)c(Cl)c2)nc(N2CCC[C@@H]2C)n1` [Example 986, 4-(3-chloro-4-fluorophenyl)-6-[(2R)-4-(3-chloropyrazin-2-yl)-2-methylpiperazin-1-yl]-2-[(2S)-2-methylpyrrolidin-1-yl]pyrimidine], the IC50 was at most 1000 nM.

As to `C[C@H]1CN(c2nccnc2Cl)CCN1c1cc(-c2ccc(F)c(Cl)c2)nc(N2CCOCC2)n1` [Example 975, 4-{4-(3-chloro-4-fluorophenyl)-6-[(2S)-4-(3-chloropyrazin-2-yl)-2-methylpiperazin-1-yl]pyrimidin-2-yl}morpholine], the IC50 is at most 1000 nM.

The same test, now with this note: Table II; determined as described in Example 6 (antagonist activity); "*" = 1 micromolar or less.
As for `CC1CCN1c1nc(-c2ccc(F)c(Cl)c2)cc(N2CCN(c3ncccc3Cl)C[C@H]2C)n1` (stereo partly drawn) [Example 780, 4-(3-ohloro-4-fluorophenyi)-6-[(2R)-4-(3-chloropyridin-2-yl)-2-methylpiperazin-1-yl]-2-(2-methylazetidin-1-yl)pyrimidine], the IC50 is at most 1000 nM.

For `C[C@@H]1CCCN1c1cc(-c2ccc(Cl)c(F)c2)nc(N2CCN(c3ncccc3Cl)C[C@@H]2C)n1` [Example 960, 4-(4-chloro-3-fluorophenyl)-2-[(2S)-4-(3-chloropyridin-2-yl)-2-methylpiperazin-1-yl]-6-[(2R)-2-methylpyrrolidin-1-yl]pyrimidine], the half-maximal inhibitory concentration (IC50) was at most 1000 nM.

On to `CC1CCCN1c1nc(-c2cncc(C#N)c2)cc(N2CCN(c3ncccc3C(F)(F)F)CC2)n1` (stereo not drawn) [Example 887, 5-(2-(2-methylpyrrolidin-1-yl)-6-{4-[3-(trifluoromethyl)pyridin-2-yl]piperazin-1-yl}pyrimidin-4-yl)nicotinonitrile], for which the IC50 was at most 1000 nM.

In the case of `COc1ncc(Cl)c(N2CCN(c3cc(-c4ccc(F)cc4)nc(N4CCCC4)n3)[C@H](C)C2)n1` [Example 967, 5-chloro-4-{(3R)-4-[6-(4-fluorophenyl)-2-pyrrolidin-1-ylpyrimidin-4-yl]-3-methylpiperazin-1-yl}-2-methoxypyrimidine], the IC50 is at most 1000 nM.

Turning to `Cc1cc(-c2cc(N3CCN(c4ncccc4Cl)C[C@@H]3C)nc(Cl)n2)ccc1F` [Example 898, 2-chloro-4-[(2S)-4-(3-chloropyridin-2-yl)-2-methylpiperazin-1-yl]-6-(4-fluoro-3-methylphenyl)pyrimidine], the IC50 was at most 1000 nM.

Regarding `Cc1cc(-c2cc(N3CCN(c4ncccc4Cl)C[C@H]3C)nc(N3CCC3C)n2)ccc1F` (stereo partly drawn) [Example 785, 4-[(2R)-4-(3-chloropyridin-2-yl)-2-methylpiperazin-1-yl]-6-(4-fluoro-3-methylphenyl)-2-(2-methylazetidin-1-yl)pyrimidine], the IC50 is at most 1000 nM.

Regarding `O=C(O)C1CCCN(c2nc(-c3ccc(F)c(Cl)c3)cc(N3CCN(c4ncccc4C(F)(F)F)CC3)n2)C1` (stereo not drawn) [Example 800, 1-(4-(3-chloro-4-fluorophenyl)-6-{4-[3-(trifluoromethyl)pyridin-2-yl]piperazin-1-yl}pyrimidin-2-yl)piperidine-3-carboxylic acid], the IC50 was at most 1000 nM.

As to `C[C@@H]1CN(c2ncccc2C(F)(F)F)CCN1c1cc(-c2ccc(F)c(F)c2)nc(N2CCCCC2)n1` [Example 793, 4-(3,4-difluorophenyl)-6-{(2R)-2-methyl-4-[3-(trifluoromethyl)pyridin-2-yl]piperazin-1-yl}-2-piperidin-1-ylpyrimidine], the IC50 was at most 1000 nM.

With `C[C@@H]1CN(c2ncccc2Cl)CCN1c1cc(-c2ccc(F)cc2)nc(N2CCOCC2)n1` [Example 845, 4-[4-[(2R)-4-(3-chloropyridin-2-yl)-2-methylpiperazin-1-yl]-6-(4-fluorophenyl)pyrimidin-2-yl]morpholine], the IC50 is at most 1000 nM.

With `C[C@@H]1CN(c2ncccc2Cl)CCN1c1cc(-c2ccc(C#N)cc2)nc(N2CCOCC2)n1` [Example 861, 4-{6-[(2R)-4-(3-chloropyridin-2-yl)-2-methylpiperazin-1-yl]-2-morpholin-4-ylpyrimidin-4-yl}benzonitrile], the half-inhibitory concentration (IC50) is at most 1000 nM.

Staying with this test, now noted: Table II; determined as described in Example 6; class symbol.
On to `Cc1ccc(-c2nc(N3CCOCC3)nc(N3CCN(c4ccccn4)CC3)n2)c2ccccc12` [Example 276, 2-(4-methyl-1-naphthyl)-4-morpholin-4-yl-6-(4-pyridin-2-ylpiperazin-1-yl)-1,3,5-triazine], for which the IC50 was at most 1000 nM.

With `Cc1cc(F)ccc1-c1nc(N2CCOCC2)nc(N2CCN(c3ccccn3)CC2)n1` [Example 273, 2-(4-fluoro-2-methylphenyl)-4-morpholin-4-yl-6-(4-pyridin-2-ylpiperazin-1-yl)-1,3,5-triazine], the IC50 is at most 1000 nM.

Still in this test, the particulars now being: determined as described in Example 6 (calcium mobilization, antagonist activity); Table II.
As to `CC1CN(c2nc(-c3ccc(F)c(Cl)c3)cc(N3CCN(c4ncccc4C(F)(F)F)CC3)n2)CCN1` (stereo not drawn) [Example 614, 4-(3-chloro-4-fluorophenyl)-2-(3-methylpiperazin-1-yl)-6-{4-[3-(trifluoromethyl)pyridin-2-yl]piperazin-1-yl}pyrimidine], the IC50 is at most 1000 nM.

With `CCCN1CCN(c2nc(-c3ccc(F)c(C)c3)cc(N3CCN(c4ncccc4C(F)(F)F)CC3)n2)CC1` [Example 682, 4-(4-fluoro-3-methylphenyl)-2-(4-propylpiperazin-1-yl)-6-{4-[3-(trifluoromethyl)pyridin-2-yl]piperazin-1-yl}pyrimidine], the IC50 was at most 1000 nM.

Turning to `CS(=O)(=O)C1CCN(c2nc(-c3ccc(F)c(Cl)c3)cc(N3CCN(c4ncccc4C(F)(F)F)CC3)n2)CC1` [Example 655, 4-(3-chloro-4-fluorophenyl)-2-[4-(methylsulfonyl)piperidin-1-yl]-6-{4-[3-(trifluoromethyl)pyridin-2-yl]piperazin-1-yl}pyrimidine], the IC50 is at most 1000 nM.

`O=C1CN(c2nc(-c3ccc(F)c(Cl)c3)cc(N3CCN(c4ncccc4C(F)(F)F)CC3)n2)CCN1` [Example 654, 4-(4-(3-chloro-4-fluorophenyl)-6-{4-[3-(trifluoromethyl)pyridin-2-yl]piperazin-1-yl}pyrimidin-2-yl)piperazin-2-one]: the IC50 was at most 1000 nM.

Consider `Fc1ccc(-c2cc(N3CCN(c4ncccc4C(F)(F)F)CC3)nc(N3CCN(c4ncccc4C(F)(F)F)CC3)n2)cc1Cl` [Example 673, 4-(3-chloro-4-fluorophenyl)-2,6-bis{4-[3-(trifluoromethyl)pyridin-2-yl]piperazin-1-yl}pyrimidine], for which the IC50 was at most 1000 nM.

Take `CS(=O)(=O)N1CCN(c2nc(-c3ccc(F)c(Cl)c3)cc(N3CCN(c4ncccc4C(F)(F)F)CC3)n2)CC1` [Example 572, 4-(3-chloro-4-fluorophenyl)-2-[4-(methylsulfonyl)piperazin-1-yl]-6-{4-[3-(trifluoromethyl)pyridin-2-yl]piperazin-1-yl)pyrimidine]: the IC50 is at most 1000 nM.

Turning to `Cc1cc(-c2cc(N3CCN(c4ncccc4Cl)C[C@H]3C)nc(N3CCCCC3)n2)ccc1F` [Example 720, 4-[(2R)-4-(3-chloropyridin-2-yl)-2-methylpiperazin-1-yl]-6-(4-fluoro-3-methylphenyl)-2-piperidin-1-ylpyrimidine], the IC50 is at most 1000 nM.
